Assay results reported in PubChem BioAssay (NCI).
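These data come from cells grown in 96-well plates and exposed to compound for 48 hours at five concentrations. Here, GI50 denotes the concentration required for 50% inhibition of growth. TGI is the concentration that stops growth completely.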

Legend:
Assay in all cases: inhibition of tumour cell growth, NCI panel, 48 h
[1] = tested on: SK-MEL-28 melanoma
[2] = tested on: CAKI-1 renal
[3] = tested on: MDA-MB-231 breast
[4] = tested on: MDA-MB-435
[5] = tested on: HL-60(TB) leukemia
[6] = tested on: NCI-H522 lung
[7] = tested on: SR leukemia
[8] = tested on: MALME-3M melanoma
[9] = tested on: HCT-116 colon
[10] = tested on: HCC-2998 colon

Structure (SMILES)	GI50 [1] [µM]	TGI [1] [µM]	GI50 [2] [µM]	TGI [2] [µM]	GI50 [3] [µM]	TGI [3] [µM]	GI50 [4] [µM]	TGI [4] [µM]	GI50 [5] [µM]	TGI [5] [µM]	GI50 [6] [µM]	TGI [6] [µM]	GI50 [7] [µM]	TGI [7] [µM]	GI50 [8] [µM]	TGI [8] [µM]	GI50 [9] [µM]	TGI [9] [µM]	GI50 [10] [µM]	TGI [10] [µM]
O=c1ccn(C2CC(O)C(CO)O2)c(=O)[nH]1 (stereo not given)	> 5000	> 5000	> 5000	> 5000	> 5000	> 5000	> 5000	> 5000	> 5000	> 5000	> 5000	> 5000	> 5000	> 5000	> 5000	> 5000	> 5000	> 5000	> 5000	> 5000
COc1cc2ccccc2oc1=O	–	> 100	–	> 100	–	> 100	–	> 100	–	> 100	–	> 100	–	> 100	–	> 100	–	> 100	–	> 100
CC1OC(n2c3ccccc3c3c4c(c5c6ccccc6[nH]c5c32)C(=O)N(CCN[C@@H]2CCC[C@H]2N)C4=O)CC(O)C1O (stereo not given in full)	2.65	9.59	6.24	12.9	1.88	8.16	1.44	6.46	1.26	8.23	0.962	5.26	0.439	3.94	2.06	9.07	1.32	5.54	3.23	11.4
COc1ccc(C2CC(C)(O)Oc3cc4c(cc32)OCO4)cc1 (stereo not given)	–	> 100	–	> 100	–	> 100	–	42.9	–	68.4	–	44.6	–	> 78.9	–	> 100	–	> 100	–	> 100
CC1(N)CCN(c2cccnc2NC(=O)c2nc(-c3ncccc3C(F)(F)F)cnc2N)CC1	25	85.6	17.8	> 100	27.8	> 100	41.6	> 100	12.4	37.8	15.1	47.9	3.3	35.5	17.6	36.4	13.5	> 100	> 100	> 100
CC(=O)OC[C@]12CC[C@@H](C(=O)CBr)[C@@H]1[C@H]1CC[C@@H]3[C@@]4(C)CCCNC(C)(C)[C@@H]4CC[C@@]3(C)[C@]1(C)CC2	2.23	4.23	1.81	4.13	3.72	17.9	3.81	13.8	2.11	4.95	2.06	4.6	2	5.71	2	4.29	1.84	3.61	11.5	26.1
COc1cc2c3c(n(CCCCN)c(=O)c2cc1OC)-c1cc2c(cc1C3=O)OCO2	1.56	12.4	0.656	4.12	0.442	1.56	2.29	7.32	1.88	15.4	0.259	9.89	0.115	0.417	4.11	11.2	0.234	0.797	0.659	2.26
COC(=O)[C@@]12OC[C@]34[C@H]([C@@H](O)[C@@H]1O)[C@@]1(C)[C@H](O)C(=O)C=C(C)[C@@H]1C[C@H]3OC(=O)C(OC(C)=O)[C@@H]24 (stereo not given in full)	0.019	0.0642	0.107	0.394	0.0979	0.366	0.0319	0.148	0.0119	0.0315	< 0.0111	0.041	0.0195	0.0425	0.0151	0.0466	0.022	0.0503	0.0168	0.111
COc1ccc(-c2nc(-c3ccccc3)c(-c3ccccc3)[nH]2)cc1OC1CCCC1	> 100	> 100	88	> 100	15.5	> 100	> 100	> 100	> 100	> 100	6.11	> 100	15	> 100	> 100	> 100	> 100	> 100	> 100	> 100
O=C(Nc1cccc(-n2cc(-c3ccncc3)c(-c3ccc(Cl)c(O)c3)n2)c1)c1ccc(N2CCOCC2)c(C(F)(F)F)c1	1.5	6.04	2.78	24.6	0.975	15.6	2.04	> 50	3.81	> 50	2.31	44	1.63	> 50	1.25	4.08	2.87	> 50	5.66	> 50
